Test results reported in patent publication US20250353835A1, “N-TETRAZOLYL ARYL UREA-BASED DERIVATIVES, PREPARATION METHOD THEREFOR, AND USE THEREOF” (Hangzhou Yirui Pharmaceutical Technology Co., Ltd, priority 2022, published 2025).
Like-named read-outs stand apart in the source and are kept apart here.

What was measured:
[1] = Liver microsomal metabolism in vitro, human LM clearance; type: in vitro ADME; settings: human liver microsomes in vitro
Protocol: (§1) In addition, the LC-MS/MS method was used to determine the substrate metabolites of 5 major subtypes of human liver microsomal CYP450 enzymes (including CYP1A2, CYP2D6, CYP2C8, CYP2C9, and CYP3A4). The substrate method was used to determine the activity of human liver microsomal CYP450 enzyme. The established incubation system was verified using known inhibitors to investigate the inhibitory effect of the compound on CYP450 enzyme. For the enzyme induction test, a primary cultured human hepatocyte incubation system was used. 3-methylcholanthrene, phenobarbital, and rifampicin were used as positive control inducers of CYP1A2, CYP2B6, and CYP3A4, and phenacetin, bupropion, and testosterone were used as the substrate for CYP1A2, CYP2B6, and CYP3A4. The CYP450 enzyme activity was calculated by measuring the generation rate of 3 specific substrate metabolites in the incubation solution. Meanwhile, the total RNA was extracted from the human hepatocytes after incubation, and the real-time fluorescence quantitative PCR method was used to determine the mRNA expression level of CYP1A2, […], and CYP3A4. The enzyme activity and mRNA transcription level were used as endpoints to investigate the inductive effect of the compound on human liver P450 isoenzymes CYP1A2, […], and CYP3A4. The liver microsomal metabolism parameters in vitro are shown in Table 2B3 taking Compound 8 as an example.

[2] = Liver microsomal metabolism in vitro, rat LM clearance; type: in vitro ADME; settings: rat liver microsomes in vitro
Protocol: as §1

CYP1A2 = molecular target: T1, CYP1A2 (Homo sapiens, UniProt P05177); assay: CYP450 inhibition in human liver microsomes (substrate method, LC-MS/MS); type: in vitro ADME; settings: read-out: CYP inhibition IC50 [μM], 1A2
T1 construct: The substrate method was used to determine the activity of human liver microsomal CYP450 enzyme; from tissue; host or cells: human liver microsomes
T1 sequence (P05177 1-516): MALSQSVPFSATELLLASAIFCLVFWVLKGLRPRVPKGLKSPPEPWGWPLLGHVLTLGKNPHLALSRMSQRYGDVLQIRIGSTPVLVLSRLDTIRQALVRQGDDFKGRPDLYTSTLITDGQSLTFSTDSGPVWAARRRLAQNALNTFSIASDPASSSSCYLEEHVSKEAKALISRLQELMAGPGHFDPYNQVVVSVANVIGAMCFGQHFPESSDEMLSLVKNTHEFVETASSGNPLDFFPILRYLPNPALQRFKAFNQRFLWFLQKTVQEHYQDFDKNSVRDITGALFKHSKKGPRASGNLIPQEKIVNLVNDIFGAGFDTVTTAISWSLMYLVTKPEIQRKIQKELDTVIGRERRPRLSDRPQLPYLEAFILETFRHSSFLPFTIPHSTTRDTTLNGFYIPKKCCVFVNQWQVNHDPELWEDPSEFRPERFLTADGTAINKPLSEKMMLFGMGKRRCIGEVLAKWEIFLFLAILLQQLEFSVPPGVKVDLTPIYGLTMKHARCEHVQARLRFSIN
Protocol: as §1

CYP2C9 = molecular target: T2, CYP2C9 (Homo sapiens, UniProt P11712); assay: as above; type: in vitro ADME; settings: read-out: CYP inhibition IC50 [μM], 2C9
T2 construct: The substrate method was used to determine the activity of human liver microsomal CYP450 enzyme; from tissue; host or cells: human liver microsomes
T2 sequence (P11712 whole entry): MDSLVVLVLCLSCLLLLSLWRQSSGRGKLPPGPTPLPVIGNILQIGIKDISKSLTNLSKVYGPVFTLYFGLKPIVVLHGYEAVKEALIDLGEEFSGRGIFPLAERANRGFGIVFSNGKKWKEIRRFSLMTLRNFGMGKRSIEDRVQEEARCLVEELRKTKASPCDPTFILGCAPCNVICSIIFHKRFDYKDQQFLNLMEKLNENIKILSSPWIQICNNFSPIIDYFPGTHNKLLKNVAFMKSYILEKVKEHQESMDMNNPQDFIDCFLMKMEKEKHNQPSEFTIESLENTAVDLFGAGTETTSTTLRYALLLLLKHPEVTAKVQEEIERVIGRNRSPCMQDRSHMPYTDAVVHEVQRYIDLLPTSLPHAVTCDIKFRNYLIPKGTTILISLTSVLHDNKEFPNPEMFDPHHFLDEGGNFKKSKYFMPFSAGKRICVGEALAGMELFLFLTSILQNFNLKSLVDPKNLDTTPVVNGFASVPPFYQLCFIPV
Protocol: as §1

CYP3A4 = molecular target: T3, CYP3A4 (Homo sapiens, UniProt P08684); assay: as above; type: in vitro ADME; settings: read-out: CYP inhibition IC50 [μM], 3A4
T3 construct: from tissue; host or cells: human liver microsomes
T3 sequence (P08684 whole entry): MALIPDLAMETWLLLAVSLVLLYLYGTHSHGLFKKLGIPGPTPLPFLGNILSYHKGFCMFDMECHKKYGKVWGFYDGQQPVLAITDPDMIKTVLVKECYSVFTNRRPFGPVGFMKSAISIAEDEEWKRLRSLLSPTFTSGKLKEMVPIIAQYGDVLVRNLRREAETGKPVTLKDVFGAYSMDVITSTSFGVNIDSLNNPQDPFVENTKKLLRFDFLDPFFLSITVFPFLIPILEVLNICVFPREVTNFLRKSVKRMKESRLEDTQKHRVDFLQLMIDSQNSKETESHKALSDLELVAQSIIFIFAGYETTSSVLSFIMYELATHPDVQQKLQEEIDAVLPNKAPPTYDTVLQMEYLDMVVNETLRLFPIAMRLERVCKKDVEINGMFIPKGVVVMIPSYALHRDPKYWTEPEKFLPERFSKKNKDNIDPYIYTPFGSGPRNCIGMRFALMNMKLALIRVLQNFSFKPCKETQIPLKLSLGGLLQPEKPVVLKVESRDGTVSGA
Protocol: as §1

[3] = Drug concentration in rat retinas after intraocular injection (HPLC); type: in vivo, Wistar rats; settings: retina
Excerpt: 1.1 Experimental aminals: SPF-grade male Wistar rats weighed 180-220 g.
1.2 Drugs and reagents: Compound 71; sodium chloride injection (Shandong Qidu Pharmaceutical Co., Ltd., Batch No.: 3B151014124); acetonitrile (chromatographically pure, TEDIA, USA); methanol (chromatographically pure, SIGMA-ALDRICH product); triethylamine (analytically pure, Hangzhou Gaojing Fine Chemical Co., Ltd.).
1.3 Experimental grouping and administration: according to the sampling time, 33 male Wistar rats were divided into 11 groups (three rats per group) of: (1) control group; (2) 0 h; (3) 2 h; (4) 6 h; (5) 24 h; (6) 48 h; (7) 72 h; (8) 5 d; (9) 7 d; (10) 10 d; (11) 14 d. Three rats in the control group were injected with solvent (sterile normal saline) intraocularly, and the remaining 30 rats were injected with Compound 71 intraocularly at a concentration of 0.5% by using a 5 μL microinjector, and 5 μL of drug was injected per bulbus oculi.
1.4 Sampling and detection index: The retina of the rat in the control group was taken on Day 14 (14 d), and the retina of the remaining 30 rats was taken at the corresponding time points. The retina were frozen in liquid nitrogen, and then subjected to the subsequent HPLC detection.
1.5.1 Chromatographic conditions: The mobile phase was chromatographic grade acetonitrile-water=25-75 (v/v). The flow rate was 0.5 mL/min. The column temperature was 25° C. The UV detection wavelength was 254 nm. The injection volume was 20 μL.
1.5.2 Sample processing and preparation: the sample of the rat retina was taken out from the ultra-low temperature (−80° C.) refrigerator, accurately weighed and placed in a glass homogenizer, and ethyl acetate as an organic solvent pre-cooled in a 4° C. refrigerator was added at a ratio of 100 mL/g. The homogenizer was placed in an ice bath for homogenization. After homogenization, all the homogenate was poured into a 5 mL stoppered centrifuge tube. The centrifugation was performed at a low temperature of 4° C. for 5 min (5000 r/min). All the organic phase as the upper layer was accurately taken out and placed in a glass tube with conical bottom. The remaining residue of retina was extracted with 2 mL ethyl acetate repeatedly once. After centrifugation, the two organic phases were combined. Then, the centrifuge tube with conical bottom was blowed for dryness in a nitrogen flow in a 45° C. water bath. The residue was redissolved with 0.1 mL of chromatographic methanol, vortex mixed for 1 min, and centrifuged for 5 min at a high speed of 18000 r/min. 20 μL of the supernatant was taken, and analyzed in a high-performance liquid chromatography system.
1.5.3 Sample determination: After intraocular injection of 5 μL of 0.5% Compound 71, the retina was taken at different time points to analyze the drug content of the test compound in the retina.
1.5.4 Experimental results and conclusions: According to the retinal drug concentration-time curve, it is in conformity to the non-absorption two-compartment model. According to the pharmacokinetic non-absorption two-compartment model theory, the pharmacokinetic parameters of the drug were calculated.

[4] = intraocular injection of 5 μL of 0.5% per eye, two-compartment model

Row | Structure (SMILES) | Human LM clearance [1] | Rat LM clearance [2] | IC50 (CYP1A2) | IC50 (CYP2C9) | IC50 (CYP3A4) | concentration at 14 d ([3]; male, Wistar, rat, other: intraocular injection, 5 μL of 0.5% solution per eye, Day 14 after intraocular injection of 0.5% (5 μL per eye), read-out: retinal concentration) | half-life ([3]; male, Wistar, rat, topical or ocular, 5 μL of 0.5% solution per eye, intraocular injection of 5 μL of 0.5% per eye, two-compartment model, read-out: Distribution half-life (converted)) | half-life ([3]; male, Wistar, rat, topical or ocular, 5 μL of 0.5% solution per eye, intraocular injection of 5 μL of 0.5% per eye, two-compartment model, read-out: Elimination half-life (converted)) | AUC ([3]; male, Wistar, rat, topical or ocular, 5 μL of 0.5% solution per eye, intraocular injection of 5 μL of 0.5% per eye, two-compartment model, read-out: Area under the time curve AUC) | Apparent distribution volume [3, 4] | Total clearance CLT [3, 4]
1 | CCOc1ccc(-c2c(F)cc(NC(=O)N3CCC(C(C)(C)C)CC3)cc2-c2nn[nH]n2)cn1 [Compound 8, 4-(tert-butyl)-N-(4-(6-ethoxypyrid-3-yl)-3-fluoro-5-(2H-tetrazol-5-yl)phenyl)piperidine-1-carboxamide] | 8.5 mL/min/kg | 9.83 mL/min/kg | 50 µM | 50 µM | 50 µM |  |  |  |  |  | 
2 | CCOc1ccc(-c2ccc(NC(=O)N[C@H]3CC[C@H](C)CC3)cc2-c2nn[nH]n2)cn1 [Compound 71, 1-(4-(6-ethoxypyrid-3-yl)-3-(2H-tetrazol-5-yl)phenyl)-3-((trans)-4-methylcyclohexyl)urea] |  |  |  |  |  | 1240 nM | 6.97 h | 408 h | 901 µg·h/mL | 0.001676 L | 5.55e-05 L/h
